Laboratory results as given in ChEMBL document CHEMBL1157906, “Imidazoacridin-6-ones as novel inhibitors of the quinone oxidoreductase NQO2” (Bioorg Med Chem Lett, 2010).

How the values were obtained:
Nucleic Acid = experiment: Binding affinity to calf thymus DNA assessed as change in melting temperature at 10 uM relative to control; assay type: nucleic-acid assay; settings: Bos taurus
[1] = biological target: T1, Ribosyldihydronicotinamide dehydrogenase [quinone] (Homo sapiens, UniProt P16083); experiment: Inhibition of human recombinant NQO2 assessed as reduction of DCPIP by spectrophotometry
T1 sequence (P16083 whole entry): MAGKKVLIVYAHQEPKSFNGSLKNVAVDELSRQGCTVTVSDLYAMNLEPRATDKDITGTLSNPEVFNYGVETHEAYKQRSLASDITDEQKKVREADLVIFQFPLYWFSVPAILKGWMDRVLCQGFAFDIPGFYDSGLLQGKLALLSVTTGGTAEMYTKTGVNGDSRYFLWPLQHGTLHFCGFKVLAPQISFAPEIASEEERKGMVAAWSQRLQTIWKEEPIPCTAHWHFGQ

HCT-116 = experiment: Toxicity in human HCT116 cells after 96 hrs by MTT assay; assay type: functional

Row | SMILES | ΔTm (Nucleic Acid) [°C] | IC50 [1] [nM] | Activity (HCT-116) [µM]
1 | COc1cccc2c1C(=O)c1c(O)c3c(c(O)c1C2=O)C[C@@](O)(C(=O)CO)C[C@@H]3O[C@H]1C[C@H](N)[C@H](O)[C@H](C)O1 | 14.5 | – | –
2 | Cc1nc2ccc(NCCN(C)C)c3c(=O)c4ccccc4n1c23 | 7.1 | 323 | 0.46
3 | CCN(CC)CCCNc1ccc2ncn3c4ccc(O)cc4c(=O)c1c23 | 8 | 597 | 0.82
4 | CCN(CC)CCNc1ccc2ncn3c4ccc(O)cc4c(=O)c1c23 [C-1311] | 4.5 | 148 | 0.77
5 | CCc1nc2ccc(NCCN(C)C)c3c(=O)c4ccccc4n1c23 | 5.1 | 693 | 0.47
6 | CCN(CC)CCNc1ccc2ncn3c4ccccc4c(=O)c1c23 | 6.4 | 427 | 1
7 | CCN(CC)CCNc1ccc2ncn3c4cc(O)ccc4c(=O)c1c23 | 5 | 953 | 2.2
8 | CN(C)CCNc1ccc2ncn3c4ccccc4c(=O)c1c23 | 5.6 | 830 | 0.57
9 | CN(C)CCNc1ccc2ncn3c4ccc(O)cc4c(=O)c1c23 | 5.1 | 296 | 1
10 | CCN(CC)CCNc1ccc2ncn3c4ccc(OC)cc4c(=O)c1c23 | 4.5 | 1000 | 2.9

More lines, main results first:

Row | ΔTm (Nucleic Acid) [°C] | IC50 [1] [nM] | SMILES | Activity (HCT-116) [µM]
11 | 9.1 | 50 | Cc1nc2ccc(NCCN(C)C)c3c(=O)c4cc(O)ccc4n1c23 | 0.65
12 | 1.8 | 17 | CCN(CC)CCNc1ccc2ncn3c4c(OC)ccc(OC)c4c(=O)c1c23 | 1.67
13 | 1 | 6 | CCN(CC)CCNc1ccc2ncn3c4cc(OC)c(OC)c(O)c4c(=O)c1c23 | 0.95
14 | 5.2 | 172 | CN(C)CCCNc1ccc2ncn3c4ccccc4c(=O)c1c23 | 0.86
15 | 8.6 | 16 | CCN(CC)CCNc1ccc2nc(C)n3c4ccc(O)cc4c(=O)c1c23 | 3
16 | 5 | 99 | CCN(CC)CCNc1ccc2ncn3c4c(OC)cccc4c(=O)c1c23 | 1.7
17 | 3.1 | 31 | CCN(CC)CCNc1ccc2ncn3c4c(OC)ccc(O)c4c(=O)c1c23 | 0.54
18 | 8.6 | 9 | CCN(CC)CCNc1ccc2nc(C)n3c4ccc(OC)cc4c(=O)c1c23 | 3
